Laboratory results as given in PubChem BioAssay AID1963849 (Molecular Pharmacology Branch, DTP, NCI, 2024).

Tested on: 299254-011-R-J1-PDC complex spheroid viability
Assay: Anticancer human tumor 299254-011-R-J1-PDC patient-derived melanoma cell line growth inhibition [POLQ]
Conditions: for IC50: curve of first compound; for viability, T/C: stronger effect = lower value
Protocol: Multicellular complex tumor spheroid response to Polymerase (POL) inhibitors (novobiocin, ART-558, RP6685) in combination with a variety of drugs and investigational agents in selected tumor cell lines
The POL inhibitors (novobiocin, ART-558, and RP6685) were evaluated both individually and in combination with standard of care and investigational anticancer small molecules within a complex spheroid model of solid tumors. . Complex spheroids include a stromal component modeled by human endothelial cells (HUVEC) and fibroblasts modeled by human mesenchymal stem cells (MSCs). The concentration ranges selected for each drug and investigational agent were based upon clinically achievable concentrations if the clinical Cmax of the agent was known.
Compounds. The drugs and investigational agents: novobiocin (NSC847541), ART-558 (NSC835418), RP-6685 (NSC848927), peposertib (NSC802822), ceralasertib (NSC780249), elimusertib (NSC800525), camonsertib (NSC841442), AZD-1390 (NSC803789), olaparib (NSC753686), talazoparib (NSC767125), rucaparib (NSC756644), sotorasib (NSC818433), MRTX-1133 (NSC836407), SN-38 (NSC673596), topotecan (NSC609699), epotoside (NSC141540), doxorubicin (NSC123127), gemcitabine (NSC613327), 5-fluorouracil (NSC19893), paclitaxel (NSC125973), vemurafenib (NSC761431), MSA-2 (NSC828583), SN-011 (NSC837082), adavosertib (NSC754352), prexasertib (NSC758257), carboplatin (NSC241240) and oxaliplatin (NSC266046), were obtained from the National Cancer Institute (NCI) Developmental Therapeutics Program Chemical Repository (21). The FDA-approved anticancer drug set is available from the Developmental Therapeutics Program at https://dtp.cancer.gov/organization/dscb/obtaining/. […] The stock solutions were prepared in dimethyl sulfoxide (DMSO, Sigma-Aldrich, St. Louis, MO, cat. D2650), except for the platinum compounds which were prepared in saline (Quality Biological, Gaithersburg, MD, cat. 114-055-101), at 800-fold the tested concentration and stored at -70 degrees C prior to their use. All drugs and investigational agents were tested over a range starting from a high concentration at or near the clinical Cmax and decreasing in half-log increments. If the clinical Cmax for an agent had not been determined, the highest concentration tested was 10 microM, except for SN-38, which was tested at a high concentration of 1 microM.
Cell Culture. All cells were maintained in an incubator at 37 degrees C and 5% CO2 with 95% humidity. The PDC lines were cultured according to standard operating procedures established by the NCI PDMR (https://pdmr.cancer.gov). Table 3 of the manuscript, lists the cell lines along with the number of the three cell types plated to form the mct-spheroids and media for tumor cell growth. After thawing, all PDC lines, except 997537-175-T-J1-PDC and 415267-285-R-J2-PDC, were cultured in Matrigel-coated flasks prepared with a working solution of 1X Ham's F-12 nutrient mix, without supplementation (Thermo Fisher Scientific, cat. 11765054), 100 U/mL penicillin-streptomycin (Thermo Fisher Scientific, cat. 15140122), and 2.5% Matrigel (Corning Inc., Corning, NY, cat. 354248) for the first three passages. The two PDC lines 997537-175-T-J1-PDC and 415267-285-R-J2-PDC were cultured on uncoated flasks. The 857933-349-R-J2-PDC line was cultured in 6C/Colon 1B media containing advanced DMEM/F-12 (Thermo Fisher Scientific, cat. 12634028), 10 mM HEPES (Thermo Fisher Scientific, cat. 15630080), 1X GlutaMAX supplement (Thermo Fisher Scientific, cat. 35050061), 0.1 mg/mL primocin (InvivoGen, San Diego, CA, cat. ant-pm-2), 10% defined fetal bovine serum, heat inactivated (HyClone Laboratories Inc., Logan, UT, cat. SH30070.03HI), 50% L-WRN conditioned media (ATCC, cat. CRL-3276), 1.25 mM N-Acetyl-L-cysteine (Sigma-Aldrich, cat. A9165), 10 mM nicotinamide (Sigma-Aldrich, cat. N0636), 1X B-27 supplement (Thermo Fisher Scientific, cat. 17504044), 1X N-2 supplement (Thermo Fisher Scientific, cat. […]

[1] = second compound 0.0316 µM, first compound 0.0316 µM
[2] = second compound 0.0316 µM, first compound 0.1 µM
[3] = second compound 0.1 µM, first compound 0.0316 µM
[4] = second compound 0.1 µM, first compound 0.1 µM
[5] = second compound 0.316 µM, first compound 0.0316 µM
[6] = second compound 0.316 µM, first compound 0.1 µM
[7] = second compound 1 µM, first compound 0.0316 µM
[8] = second compound 1 µM, first compound 0.1 µM
[9] = second compound 3.16 µM, first compound 0.0316 µM
[10] = second compound 3.16 µM, first compound 0.1 µM
[11] = second compound 10 µM, first compound 0.0316 µM
[12] = second compound 10 µM, first compound 0.1 µM
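Note: spheroids exposed to drugs for one week before measurement.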
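Throughout, for viability, T/C: percent viability relative to DMSO vehicle control taken as 100%.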

Compound: CC[C@@]1(O)C(=O)OCc2c1cc1n(c2=O)Cc2cc3c(CN(C)C)c(O)ccc3nc2-1 + COC1C(OC(N)=O)C(O)C(Oc2ccc3c(O)c(NC(=O)c4ccc(O)c(CC=C(C)C)c4)c(=O)oc3c2C)OC1(C)C
- IC50 (second compound 0.0316 µM): > 0.1 µM
- IC50 (second compound 0.1 µM): > 0.1 µM
- IC50 (second compound 0.316 µM): > 0.1 µM
- IC50 (second compound 1 µM): > 0.1 µM
- IC50 (second compound 3.16 µM): > 0.1 µM
- IC50 (second compound 10 µM): > 0.1 µM
- viability, T/C (second compound 0.0316 µM, first compound 0.000316 µM): 104%
- viability, T/C (second compound 0.0316 µM, first compound 0.001 µM): 95.4%
- viability, T/C (second compound 0.0316 µM, first compound 0.00316 µM): 123%
- viability, T/C (second compound 0.0316 µM, first compound 0.01 µM): 101%
- viability, T/C [1]: 112%
- viability, T/C [2]: 76%
- viability, T/C (second compound 0.1 µM, first compound 0.000316 µM): 111%
- viability, T/C (second compound 0.1 µM, first compound 0.001 µM): 105%
- viability, T/C (second compound 0.1 µM, first compound 0.00316 µM): 107%
- viability, T/C (second compound 0.1 µM, first compound 0.01 µM): 110%
- viability, T/C [3]: 114%
- viability, T/C [4]: 83.5%
- viability, T/C (second compound 0.316 µM, first compound 0.000316 µM): 102%
- viability, T/C (second compound 0.316 µM, first compound 0.001 µM): 120%
- viability, T/C (second compound 0.316 µM, first compound 0.00316 µM): 103%
- viability, T/C (second compound 0.316 µM, first compound 0.01 µM): 102%
- viability, T/C [5]: 120%
- viability, T/C [6]: 74.5%
- viability, T/C (second compound 1 µM, first compound 0.000316 µM): 104%
- viability, T/C (second compound 1 µM, first compound 0.001 µM): 106%
- viability, T/C (second compound 1 µM, first compound 0.00316 µM): 111%
- viability, T/C (second compound 1 µM, first compound 0.01 µM): 110%
- viability, T/C [7]: 110%
- viability, T/C [8]: 67.6%
- viability, T/C (second compound 3.16 µM, first compound 0.000316 µM): 115%
- viability, T/C (second compound 3.16 µM, first compound 0.001 µM): 104%
- viability, T/C (second compound 3.16 µM, first compound 0.00316 µM): 93.6%
- viability, T/C (second compound 3.16 µM, first compound 0.01 µM): 105%
- viability, T/C [9]: 105%
- viability, T/C [10]: 84.6%
- viability, T/C (second compound 10 µM, first compound 0.000316 µM): 112%
- viability, T/C (second compound 10 µM, first compound 0.001 µM): 111%
- viability, T/C (second compound 10 µM, first compound 0.00316 µM): 112%
- viability, T/C (second compound 10 µM, first compound 0.01 µM): 102%
- viability, T/C [11]: 110%
- viability, T/C [12]: 87.1%

Compound: COc1cccc2c1C(=O)c1c(O)c3c(c(O)c1C2=O)CC(O)(C(=O)CO)CC3OC1CC(N)C(O)C(C)O1 (centres undefined) + COC1C(OC(N)=O)C(O)C(Oc2ccc3c(O)c(NC(=O)c4ccc(O)c(CC=C(C)C)c4)c(=O)oc3c2C)OC1(C)C
- IC50 (second compound 0.0316 µM): 0.564 µM
- IC50 (second compound 0.1 µM): 0.815 µM
- IC50 (second compound 0.316 µM): 0.527 µM
- IC50 (second compound 1 µM): 0.909 µM
- IC50 (second compound 3.16 µM): 0.826 µM
- IC50 (second compound 10 µM): 0.541 µM
- viability, T/C [1]: 81.9%
- viability, T/C [2]: 96.5%
- viability, T/C (second compound 0.0316 µM, first compound 0.316 µM): 55.2%
- viability, T/C (second compound 0.0316 µM, first compound 1 µM): 40.7%
- viability, T/C (second compound 0.0316 µM, first compound 3.16 µM): 9.45%
- viability, T/C (second compound 0.0316 µM, first compound 10 µM): 3.09%
- viability, T/C [3]: 86.8%
- viability, T/C [4]: 97.5%
- viability, T/C (second compound 0.1 µM, first compound 0.316 µM): 75.7%
- viability, T/C (second compound 0.1 µM, first compound 1 µM): 44.9%
- viability, T/C (second compound 0.1 µM, first compound 3.16 µM): 11.2%
- viability, T/C (second compound 0.1 µM, first compound 10 µM): 3%
- viability, T/C [5]: 99.2%
- viability, T/C [6]: 96%
- viability, T/C (second compound 0.316 µM, first compound 0.316 µM): 54.9%
- viability, T/C (second compound 0.316 µM, first compound 1 µM): 37.8%
- viability, T/C (second compound 0.316 µM, first compound 3.16 µM): 13.1%
- viability, T/C (second compound 0.316 µM, first compound 10 µM): 0.51%
- viability, T/C [7]: 93%
- viability, T/C [8]: 87.5%
- viability, T/C (second compound 1 µM, first compound 0.316 µM): 76.7%
- viability, T/C (second compound 1 µM, first compound 1 µM): 49.2%
- viability, T/C (second compound 1 µM, first compound 3.16 µM): 11.9%
- viability, T/C (second compound 1 µM, first compound 10 µM): 0.78%
- viability, T/C [9]: 92.6%
- viability, T/C [10]: 95.5%
- viability, T/C (second compound 3.16 µM, first compound 0.316 µM): 76.7%
- viability, T/C (second compound 3.16 µM, first compound 1 µM): 45.6%
- viability, T/C (second compound 3.16 µM, first compound 3.16 µM): 10.3%
- viability, T/C (second compound 3.16 µM, first compound 10 µM): 0.92%
- viability, T/C [11]: 105%
- viability, T/C [12]: 104%
- viability, T/C (second compound 10 µM, first compound 0.316 µM): 65.2%
- viability, T/C (second compound 10 µM, first compound 1 µM): 30%
- viability, T/C (second compound 10 µM, first compound 3.16 µM): 10.7%
- viability, T/C (second compound 10 µM, first compound 10 µM): 1.25%
